{
  "source": "BindingDB's records for PubMed 11196150",
  "about": "(Janssen Research Foundation, 2001)",
  "molecular_target": "Protein farnesyltransferase subunit beta/geranylgeranyltransferase type-1 subunit alpha (Homo sapiens, UniProt P49354+P49356)",
  "test": "FTase Scintillation Proximity Assay",
  "conditions": "pH 7.5; 22 °C",
  "experimental": "Compounds were tested as inhibitors of FTase in vitro using purified human enzyme to catalyze the reaction between [3H] FPP and a biotinylated peptide substrate. Reaction was terminated by addition of streptavidin scintillation proximity assay beads (Amersham), and the mixtures were subsequently analyzed by scintillation counting.",
  "note": "Where “and” joins values, the source holds several entries; their conditions need not be identical. Equal values may be shown once.",
  "data": [
    {"smiles": "Cn1cncc1[C@@](N)(c1ccc(Cl)cc1)c1ccc2c(c1)c(-c1cccc(Cl)c1)cc(=O)n2C", "note": "(racemic) [Racemic mixture]", "values": [
      {"measurement": "IC50", "result": "7.9 nM and 0.86 nM"}
    ]}
  ]
}
